Results from patent US20190072567A1, “METHOD OF DETECTING LC3B EXPRESSION IN EXOSOMES EXTRACTED FROM LIQUID BIOLOGICAL SAMPLES” (University of Cincinnati, priority 2017, published 2019).
“Also recorded” adds a separate entry of the source.

How the values were obtained:
LC3B [1] = test: Western blot of LC3B in exosomes extracted from MiaPaCa2 cells; assay type: cell-based, human
Protocol: U251, a human glioblastoma cell line, MiaPaCa2, a human pancreatic carcinoma cell line, and HEK293, a human embryonic kidney cell line. […] Cells were maintained in DMEM culture media supplemented with 10% fetal bovine serum (FBS), antimycotic, and L-glutamine. At 40% confluence, culture dishes were washed twice with PBS and media was replaced with 10% exosome depleted FBS (dFBS). DMEM media (50 ml EXO-FBS™ Exosome Depleted FBS media, System Biosciences) and incubated to settle for 24 h. After 24 h, culture dishes were washed with PBS and new dFBS DMEM media was added and treated with chloroquine diphosphate salt (Sigma Aldrich, UK) and incubated. […] Incubation varied according to plate confluency, CQ concentration, and expected number of exosomes secreted by the cell line. Media was collected and used for exosome extraction directly after incubation period concluded.
Detection of LC3B expression in isolated exosomes was completed using western blotting standard protocols. Briefly, gel electrophoresis was used to separate proteins by size and/or structure. Proteins were then transferred to a membrane (polyvinylidene fluoride or nitrocellulose are suitable for use) and blocked with blocking buffer to prevent non-specific antibody binding. Membranes were incubated with anti-LC3B antibody to target LC3B-I and LC3B-II. LI-COR detection (LI-COR Biotechnology, USA) was employed to visualize target proteins. […] CD9 was used as a loading control and was detected using rabbit monoclonal antibody (Cell Signaling Inc., USA). […]

LC3B [2] = test: Western blot of LC3B in exosomes extracted from patient plasma; assay type: in vivo, human; conditions: patients, Gem/Carb regimen + CQ 100 mg/day
Text: The study included 12 patients who were included within cohorts 1-3 of the approved phase I clinical trial (ClinicalTrials.gov Identifier NCT02071537). […] All subjects were consented before treatment and sample collection. All patients were heavily pretreated with anti-cancer therapeutics, with the exception of one patient who was enrolled to receive therapy with carboplatin/gemcitabine as part of the standard-of-care, in addition to the study CQ.
All 12 patients received Gem/Carb for from one to four cycles at standard doses, wherein the first three patients of cohort one received Gem 1200 mg/m2 and the remaining three patients of cohort one received 1200 mg/m^2 (Gem dose decreased in some patients due to heavy pretreatment, in order to avoid high toxicity profile). Carboplatin was received as area under the curve (AUC) 5 and dose modifications were permitted. […] The first 6 patients received 50 mg CQ daily. When well tolerated, the dose was increased by 50 mg increments to 100 mg/day (3 patients) and 150 mg/day (3 patients). All candidates began taking CQ orally 7 days prior to chemotherapy (day −7) and continued taking CQ daily throughout four cycles of Gem/Carb. […]
Detection of LC3B expression in isolated exosomes was completed using western blotting standard protocols. […] CD9 was used as a loading control and was detected using rabbit monoclonal antibody (Cell Signaling Inc., USA). […]

HEK293 cells = test: Annexin V cell survival assay by flow cytometry; assay type: cell-based, human
Protocol: HEK293 cells were plated in 10 cm culture dishes in 10% FBS DMEM media. Media was replaced with dFBS DMEM once 40% confluence was reached and cells were incubated for 24 h. Cells were treated with the following concentrations of agents: Gem 20 μM concentration (Gem^20), CQ 10 μM (CQ^10) and 20 μM (CQ^20) concentrations, and in combinations (wherein Gem was administered at 20 μM but CQ concentration varied) as follows: Gem+CQ^10 and Gem+CQ^20. Cells were treated in fresh dFBS DMEM media for 16 h. Cells and media were collected, centrifuged, and washed and stained with propedium iodide (PI) and annexin V prior to running samples. Cell cycle analysis was performed using fresh cells on a FACS Calibur (Becton Dickinson) after incubation with 25 μg/ml PI. Cell cycle phases were analyzed with the CellQuest-Pro software program (Becton Dickinson).
The effect of autophagy inhibitor CQ was examined via a cell survival assay by flow cytometry using annexin V (FIG. 8).
HEK293 cells were plated in 6 well cell culture plates and treated with control (A), Gem 20 μM (B), CQ 10 μM (C), CQ 20 μM (D), Gem 20 μM+CQ 10 μM (E), and Gem 20 μM+CQ 20 μM (F). Cells treated with CQ at both concentrations had increased expression of phosphatidyl serine compared to control from 10% up to almost 17% (C,E). Cells treated with Gem 20 μM alone had only 8.2% apoptotic cells (B).

LC3B [3] = test: Western blot of LC3B in U251 cells and in exosomes extracted from cell media; assay type: cell-based, human; conditions: for LC3B-II band in cells: cells treated with chloroquine, whole cell / total cell extracts (U251); for LC3B-II band in exosomes: exosomes isolated from U251 cells treated with CQ
Text: Three cell lines were used in the studies disclosed herein. U251, a human glioblastoma cell line, MiaPaCa2, a human pancreatic carcinoma cell line, and HEK293, a human embryonic kidney cell line. A variety of cell lines were selected in order to compare results for cells having different baseline autophagic activities. Cells were maintained in DMEM culture media supplemented with 10% fetal bovine serum (FBS), antimycotic, and L-glutamine. At 40% confluence, culture dishes were washed twice with PBS and media was replaced with 10% exosome depleted FBS (dFBS). DMEM media (50 ml EXO-FBS™ Exosome Depleted FBS media, System Biosciences) and incubated to settle for 24 h. After 24 h, culture dishes were washed with PBS and new dFBS DMEM media was added and treated with chloroquine diphosphate salt (Sigma Aldrich, UK) and incubated. Incubation period was 48 h for western blot on HEK293 plates and 72 h for western blot of U251 cells. Incubation varied according to plate confluency, CQ concentration, and expected number of exosomes secreted by the cell line. Media was collected and used for exosome extraction directly after incubation period concluded. Exosome Extraction from Patient Plasma
Exosomes were extracted from freshly collected cell culture media using exosome precipitation reagent (Total Exosome Isolation from cell culture media, Invitrogen by Life Technologies) following manufacturer instructions. Briefly, exosome extraction reagent is added to cell culture media and the solution is incubated overnight at 2-8° C. Precipitated exosomes are recovered by standard centrifugation at 10,000×g for 60 min. Extracted exosomes were suspended in phosphate buffered saline (PBS) and stored at −80° C.
Detection of LC3B expression in isolated exosomes was completed using western blotting standard protocols. Briefly, gel electrophoresis was used to separate proteins by size and/or structure. Proteins were then transferred to a membrane (polyvinylidene fluoride or nitrocellulose are suitable for use) and blocked with blocking buffer to prevent non-specific antibody binding. Membranes were incubated with anti-LC3B antibody to target LC3B-I and LC3B-II. LI-COR detection (LI-COR Biotechnology, USA) was employed to visualize target proteins. LC3B protein detection was achieved by anti-LC3B rabbit monoclonal antibody (Cell Signaling Inc., USA). CD9 was used as a loading control and was detected using rabbit monoclonal antibody (Cell Signaling Inc., USA). All western blots were run on 5-15% gradient gels after estimating and unifying sample protein content by bicinchoninic acid assay (BCA).
Quantification of LC3B-I and LC3B-II by western blot was compared in U251 cells, exosomes extracted from cell media, patient peripheral blood, and HEK293 cells (FIG. 1). U251 and HEK293 cells were treated with CQ to induce exosome secretion. Both cells and exosomes extracted from cellular media were analyzed. A peripheral blood sample was obtained from a patient undergoing Gem/Carb treatment, with a −7 daily pretreatment with CQ. Exosomes were isolated from the patient's plasma sample.

| SMILES | LC3B-II expression in exosomes (LC3B [1]; CQ 50 μM) | LC3B expression in plasma extracted exosomes (LC3B [2]) | apoptotic cells (HEK293 cells; 10 μM CQ, 16 h) [%] | distribution of cell population (HEK293 cells; 20 μM CQ compared with 10 μM CQ) | expression of phosphatidyl serine (apoptotic cells) (HEK293 cells; CQ at both concentrations (10 μM, 20 μM), control 10%) [%] | LC3B-II band in cells (LC3B [3]) | LC3B-II band in cells (LC3B [3]; listed as chloroquine) | LC3B-I bands in exosomes (LC3B [3]; exosomes from cells treated with chloroquine) | LC3B-II band in exosomes (LC3B [3]) | LC3B-II band in exosomes (LC3B [3]; listed as chloroquine) | LC3B band intensity in exosomes (LC3B [1]; Gemcitabine 20 μM alone) | early apoptotic cells (HEK293 cells; 20 μM Gem, 16 h) [%] | live cells (HEK293 cells; 20 μM Gem, 16 h) [%] | main cell population (HEK293 cells; Gem 20 μM) | apoptotic cells (HEK293 cells; Gem 20 μM alone, 16 h) [%] |
| --- | --- | --- | --- | --- | --- | --- | --- | --- | --- | --- | --- | --- | --- | --- | --- |
| CCN(CC)CCCC(C)Nc1ccnc2cc(Cl)ccc12 (stereo not drawn) [CQ, chloroquine] | clear expression of LC3B-II | first detected at 6h, with peak detection on day 15 | 17 | decreased both live and necrotic cells in favor of early apoptotic and apoptotic cells | ~17 | prominent in both CQ-treated and CQ-untreated samples | increase in LC3B-II band thickness | lacks LC3B-I bands | detected | clear LC3B-II band | – | – | – | – | – |
| Nc1ccn([C@@H]2O[C@H](CO)[C@@H](O)C2(F)F)c(=O)n1 [Gem, gemcitabine] | – | – | – | – | – | – | – | – | – | – | significantly less intense bands for both forms of LC3B; also recorded: comparatively less intense band | 56.3 | 29.3 | early apoptotic phase | 8.2 |
